Test results as given in patent US20230127944A1, “BROAD-SPECTRUM CARBAPENEMS” (priority 2019, published 2023).
≈ marks a conversion by molar mass, not a printed value.

What was measured:
Format in all cases: cell-based
S. aureus USA 600 = assay: broth microdilution MIC assay, S. aureus USA600; details: Staphylococcus aureus; S. aureus USA600 (MRSA); read-out: MIC, S. aureus USA600
How it was run: (§1)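 CLSI broth microdilution in cation-supplemented Mueller-Hinton broth with 2-fold compound dilutions and an inoculum of 5×10^5 CFU/mL from log-phase cultures. Plates were incubated 16-20 h at 37 °C, and the MIC was read visually as the lowest concentration with no growth.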

[1] = system: P. aeruginosa 35151 (hyper-permeable strain); assay: broth microdilution MIC assay, P. aeruginosa 35151; details: Pseudomonas aeruginosa, read-out: MIC, P. aeruginosa 35151
How it was run: as §1

[2] = system: P. aeruginosa ΔmexAB-OprM (an efflux pump knockout); assay: broth microdilution MIC assay, P. aeruginosa ΔmexAB-OprM; details: Pseudomonas aeruginosa, read-out: MIC, P. aeruginosa ΔmexAB-OprM
How it was run: as §1

P. aeruginosa Paeβ-17 = assay: broth microdilution MIC assay, P. aeruginosa Paeβ-17; details: Pseudomonas aeruginosa, read-out: MIC, P. aeruginosa Paeβ-17
How it was run: as §1

[3] = system: E. coli ATCC 25922 (wild-type/QC strain); assay: broth microdilution MIC assay, E. coli 25922; details: Escherichia coli, ATCC25922; read-out: MIC, E. coli 25922
How it was run: as §1

S. aureus USA 300 = assay: broth microdilution MIC assay, S. aureus USA300; details: Staphylococcus aureus; S. aureus USA300 (MRSA); read-out: MIC, S. aureus USA300
How it was run: as §1

[4] = system: S. aureus ATCC 33591 (methicillin-resistant); assay: broth microdilution MIC assay, S. aureus 33591; details: Staphylococcus aureus, ATCC33591; S. aureus 33591, methicillin-resistant; read-out: MIC, S. aureus 33591
How it was run: as §1

[5] = system: P. aeruginosa ATCC 27853 (wild-type/QC strain); assay: broth microdilution MIC assay, P. aeruginosa 27853; details: Pseudomonas aeruginosa, ATCC27853; read-out: MIC, P. aeruginosa 27853
How it was run: as §1

Row | SMILES | MIC (S. aureus USA 600) [µg/mL] | MIC [1] [µg/mL] | MIC [2] [µg/mL] | MIC (P. aeruginosa Paeβ-17) [µg/mL] | MIC [3] [µg/mL] | MIC (S. aureus USA 300) [µg/mL] | MIC [4] [µg/mL] | MIC [5] [µg/mL]
1 | C[C@@H](O)[C@H]1C(=O)N2C(C(=O)O)=C(S[C@H]3C[C@H](N[C@H]4CC[C@H](N)CC4)C3)[C@H](C)[C@H]12 [Example 59, (4R,5S,6S)-3-(((1R,3R)-3-(((1R,4R)-4-aminocyclohexyl)amino)cyclobutyl)thio)-6-((R)-1-hydroxyethyl)-4-methyl-7-oxo-1-azabicyclo[3.2.0]hept-2-ene-2-carboxylic acid] | 8 to 32 (≈ 19.5 to 78.1 µM) | < 1 | 1 to 4 (≈ 2.44 to 9.77 µM) | 8 to 32 (≈ 19.5 to 78.1 µM) | < 1 | 1 to 4 (≈ 2.44 to 9.77 µM) | 1 to 4 (≈ 2.44 to 9.77 µM) | 8 to 32 (≈ 19.5 to 78.1 µM)
2 | C[C@@H](O)[C@H]1C(=O)N2C(C(=O)O)=C(S[C@H]3C[C@H](N[C@H]4CC[C@@H](N)CC4)C3)[C@H](C)[C@H]12 [Example 60, (4R,5S,6S)-3-(((1R,3R)-3-(((1S,4S)-4-aminocyclohexyl)amino)cyclobutyl)thio)-6-((R)-1-hydroxyethyl)-4-methyl-7-oxo-1-azabicyclo[3.2.0]hept-2-ene-2-carboxylic acid] | 1 to 4 (≈ 2.44 to 9.77 µM) | < 1 | 1 to 4 (≈ 2.44 to 9.77 µM) | 8 to 32 (≈ 19.5 to 78.1 µM) | < 1 | 1 to 4 (≈ 2.44 to 9.77 µM) | 8 to 32 (≈ 19.5 to 78.1 µM) | 8 to 32 (≈ 19.5 to 78.1 µM)
3 | C[C@@H](O)[C@H]1C(=O)N2C(C(=O)O)=C(S[C@H]3C[C@@H](N[C@H]4CC[C@H](N)CC4)C3)[C@H](C)[C@H]12 [Example 61, (4R,5S,6S)-3-(((1S,3S)-3-(((1R,4S)-4-aminocyclohexyl)amino)cyclobutyl)thio)-6-((R)-1-hydroxyethyl)-4-methyl-7-oxo-1-azabicyclo[3.2.0]hept-2-ene-2-carboxylic acid] | 1 to 4 (≈ 2.44 to 9.77 µM) | < 1 | 1 to 4 (≈ 2.44 to 9.77 µM) | 8 to 32 (≈ 19.5 to 78.1 µM) | < 1 | 1 to 4 (≈ 2.44 to 9.77 µM) | 1 to 4 (≈ 2.44 to 9.77 µM) | 1 to 4 (≈ 2.44 to 9.77 µM)
4 | C[C@@H](O)[C@H]1C(=O)N2C(C(=O)O)=C(S[C@H]3C[C@@H](N[C@H]4CC[C@@H](N)CC4)C3)[C@H](C)[C@H]12 [Example 62, (4R,5S,6S)-3-(((1S,3S)-3-(((1S,4R)-4-aminocyclohexyl)amino)cyclobutyl)thio)-6-((R)-1-hydroxyethyl)-4-methyl-7-oxo-1-azabicyclo[3.2.0]hept-2-ene-2-carboxylic acid] | 1 to 4 (≈ 2.44 to 9.77 µM) | < 1 | 1 to 4 (≈ 2.44 to 9.77 µM) | 8 to 32 (≈ 19.5 to 78.1 µM) | < 1 | 1 to 4 (≈ 2.44 to 9.77 µM) | 1 to 4 (≈ 2.44 to 9.77 µM) | 1 to 4 (≈ 2.44 to 9.77 µM)
5 | C[C@@H](O)[C@H]1C(=O)N2C(C(=O)O)=C(S[C@@H]3CCN([C@H]4CC[C@@H](CNC(=N)N)CC4)C3)[C@H](C)[C@H]12 [Example 63, (4R,5S,6S)-3-(((R)-1-((1S,4S)-4-(guanidinomethyl)cyclohexyl)pyrrolidin-3-yl)thio)-6-((R)-1-hydroxyethyl)-4-methyl-7-oxo-1-azabicyclo[3.2.0]hept-2-ene-2-carboxylic acid] | 1 to 4 (≈ 2.15 to 8.59 µM) | < 1 | 1 to 4 (≈ 2.15 to 8.59 µM) | 8 to 32 (≈ 17.2 to 68.7 µM) | < 1 | 1 to 4 (≈ 2.15 to 8.59 µM) | 1 to 4 (≈ 2.15 to 8.59 µM) | 1 to 4 (≈ 2.15 to 8.59 µM)
6 | C[C@@H](O)[C@H]1C(=O)N2C(C(=O)O)=C(S[C@@H]3CCN([C@H]4CC[C@H](CNC(=N)N)CC4)C3)[C@H](C)[C@H]12 [Example 64, (4R,5S,6S)-3-(((R)-1-((1R,4R)-4-(guanidinomethyl)cyclohexyl)pyrrolidin-3-yl)thio)-6-((R)-1-hydroxyethyl)-4-methyl-7-oxo-1-azabicyclo[3.2.0]hept-2-ene-2-carboxylic acid] | 1 to 4 (≈ 2.15 to 8.59 µM) | < 1 | 1 to 4 (≈ 2.15 to 8.59 µM) | 8 to 32 (≈ 17.2 to 68.7 µM) | < 1 | 1 to 4 (≈ 2.15 to 8.59 µM) | 1 to 4 (≈ 2.15 to 8.59 µM) | 1 to 4 (≈ 2.15 to 8.59 µM)
7 | C[C@@H](O)[C@H]1C(=O)N2C(C(=O)O)=C(SC3CN([C@H]4CC[C@@H](CNC(=N)N)CC4)C3)[C@H](C)[C@H]12 [Example 65, (4R,5S,6S)-3-((1-((1S,4S)-4-(guanidinomethyl)cyclohexyl)azetidin-3-yl)thio)-6-((R)-1-hydroxyethyl)-4-methyl-7-oxo-1-azabicyclo[3.2.0]hept-2-ene-2-carboxylic acid] | 1 to 4 (≈ 2.21 to 8.86 µM) | < 1 | 1 to 4 (≈ 2.21 to 8.86 µM) | 8 to 32 (≈ 17.7 to 70.9 µM) | < 1 | 1 to 4 (≈ 2.21 to 8.86 µM) | 1 to 4 (≈ 2.21 to 8.86 µM) | 1 to 4 (≈ 2.21 to 8.86 µM)
8 | C[C@@H](O)[C@H]1C(=O)N2C(C(=O)O)=C(SC3CN([C@H]4CC[C@H](CNC(=N)N)CC4)C3)[C@H](C)[C@H]12 [Example 66, (4R,5S,6S)-3-((1-((1R,4R)-4-(guanidinomethyl)cyclohexyl)azetidin-3-yl)thio)-6-((R)-1-hydroxyethyl)-4-methyl-7-oxo-1-azabicyclo[3.2.0]hept-2-ene-2-carboxylic acid] | 1 to 4 (≈ 2.21 to 8.86 µM) | < 1 | 1 to 4 (≈ 2.21 to 8.86 µM) | 8 to 32 (≈ 17.7 to 70.9 µM) | < 1 | 1 to 4 (≈ 2.21 to 8.86 µM) | 1 to 4 (≈ 2.21 to 8.86 µM) | 1 to 4 (≈ 2.21 to 8.86 µM)
9 | C[C@@H](O)[C@H]1C(=O)N2C(C(=O)O)=C(S[C@H]3C[C@H](N[C@H]4CC[C@H](N)C4)C3)[C@H](C)[C@H]12 [Example 67, (4R,5S,6S)-3-(((1S,3R)-3-(((1S,3S)-3-aminocyclopentyl)amino)cyclobutyl)thio)-6-((R)-1-hydroxyethyl)-4-methyl-7-oxo-1-azabicyclo[3.2.0]hept-2-ene-2-carboxylic acid] | 1 to 4 (≈ 2.53 to 10.1 µM) | < 1 | 1 to 4 (≈ 2.53 to 10.1 µM) | 8 to 32 (≈ 20.2 to 80.9 µM) | < 1 | 8 to 32 (≈ 20.2 to 80.9 µM) | 8 to 32 (≈ 20.2 to 80.9 µM) | 8 to 32 (≈ 20.2 to 80.9 µM)
10 | C[C@@H](O)[C@H]1C(=O)N2C(C(=O)O)=C(S[C@H]3C[C@H](N[C@H]4CC[C@H](NC(=N)N)CC4)C3)[C@H](C)[C@H]12 [Example 68, (4R,5S,6S)-3-(((1R,3R)-3-(((1R,4R)-4-guanidinocyclohexyl)amino)cyclobutyl)thio)-6-((R)-1-hydroxyethyl)-4-methyl-7-oxo-1-azabicyclo[3.2.0]hept-2-ene-2-carboxylic acid] | 1 to 4 (≈ 2.21 to 8.86 µM) | < 1 | 1 to 4 (≈ 2.21 to 8.86 µM) | 8 to 32 (≈ 17.7 to 70.9 µM) | < 1 | 1 to 4 (≈ 2.21 to 8.86 µM) | 8 to 32 (≈ 17.7 to 70.9 µM) | 8 to 32 (≈ 17.7 to 70.9 µM)
11 | C[C@@H](O)[C@H]1C(=O)N2C(C(=O)O)=C(S[C@H]3C[C@H](N[C@H]4CC[C@@H](NC(=N)N)CC4)C3)[C@H](C)[C@H]12 [Example 69, (4R,5S,6S)-3-(((1R,3R)-3-(((1S,4S)-4-guanidinocyclohexyl)amino)cyclobutyl)thio)-6-((R)-1-hydroxyethyl)-4-methyl-7-oxo-1-azabicyclo[3.2.0]hept-2-ene-2-carboxylic acid] | 1 to 4 (≈ 2.21 to 8.86 µM) | < 1 | 1 to 4 (≈ 2.21 to 8.86 µM) | 8 to 32 (≈ 17.7 to 70.9 µM) | < 1 | 1 to 4 (≈ 2.21 to 8.86 µM) | 8 to 32 (≈ 17.7 to 70.9 µM) | 8 to 32 (≈ 17.7 to 70.9 µM)
12 | C[C@@H](O)[C@H]1C(=O)N2C(C(=O)O)=C(S[C@H]3C[C@H](N[C@@H]4CC[C@H](N)C4)C3)[C@H](C)[C@H]12 [Example 70, (4R,5S,6S)-3-(((1R,3R)-3-(((1R,3S)-3-aminocyclopentyl)amino)cyclobutyl)thio)-6-((R)-1-hydroxyethyl)-4-methyl-7-oxo-1-azabicyclo[3.2.0]hept-2-ene-2-carboxylic acid] | 1 to 4 (≈ 2.53 to 10.1 µM) | < 1 | 1 to 4 (≈ 2.53 to 10.1 µM) | 8 to 32 (≈ 20.2 to 80.9 µM) | < 1 | 8 to 32 (≈ 20.2 to 80.9 µM) | 8 to 32 (≈ 20.2 to 80.9 µM) | 8 to 32 (≈ 20.2 to 80.9 µM)
13 | C[C@@H](O)[C@H]1C(=O)N2C(C(=O)O)=C(S[C@H]3C[C@H](N[C@@H]4CC[C@@H](N)C4)C3)[C@H](C)[C@H]12 [Example 71, (4R,5S,6S)-3-(((1R,3R)-3-(((1R,3R)-3-aminocyclopentyl)amino)cyclobutyl)thio)-6-((R)-1-hydroxyethyl)-4-methyl-7-oxo-1-azabicyclo[3.2.0]hept-2-ene-2-carboxylic acid] | 1 to 4 (≈ 2.53 to 10.1 µM) | < 1 | 1 to 4 (≈ 2.53 to 10.1 µM) | 8 to 32 (≈ 20.2 to 80.9 µM) | < 1 | 1 to 4 (≈ 2.53 to 10.1 µM) | 8 to 32 (≈ 20.2 to 80.9 µM) | 8 to 32 (≈ 20.2 to 80.9 µM)
14 | C[C@@H](O)[C@H]1C(=O)N2C(C(=O)O)=C(S[C@@H]3CCN(C[C@H]4CC[C@@H](N)CC4)C3)[C@H](C)[C@H]12 [Example 72, (4R,5S,6S)-3-(((R)-1-(((1S,4S)-4-aminocyclohexyl)methyl)pyrrolidin-3-yl)thio)-6-((R)-1-hydroxyethyl)-4-methyl-7-oxo-1-azabicyclo[3.2.0]hept-2-ene-2-carboxylic acid] | 1 to 4 (≈ 2.36 to 9.44 µM) | < 1 | 8 to 32 (≈ 18.9 to 75.5 µM) | 1 to 4 (≈ 2.36 to 9.44 µM) | < 1 | 1 to 4 (≈ 2.36 to 9.44 µM) | 8 to 32 (≈ 18.9 to 75.5 µM) | 1 to 4 (≈ 2.36 to 9.44 µM)
